In brackets after ≈: the same amount, converted by molar mass. Activity calls are given as the source filed them. No cut-off for these calls is given here.
Columns and labels:
CYP3A4 [1] = target: T1, CYP3A4 (Homo sapiens, UniProt P08684); experiment: Inhibition of microsomal CYP3A4 (unknown origin) using bufuralol/midazolam/diclofinac as substrate assessed as 1-hydroxybufuralol maleate-d9/alpha-hydroxymidazolam-d4/[13C6]-4-hydroxydiclofinac formation at 10 uM pre-incubated for 10 mins before NADPH addition by LC-MS/MS analysis; type: ADME; settings: microsomes, probe bufuralol/midazolam/diclofinac
[2] = Plasma concentration in beagle dog at 2 mg/kg, po after 24 hrs by LC-MS/MS analysis; type: ADME, organism-based, Canis lupus familiaris
Prostaglandin E synthase [3] = target: T2, Prostaglandin E synthase (Homo sapiens, UniProt O14684); experiment: Inhibition of human microsomal PGES1 expressed in 293E cells by LC/MS/MS analysis; type: cell-based
T2 sequence (O14684 whole entry): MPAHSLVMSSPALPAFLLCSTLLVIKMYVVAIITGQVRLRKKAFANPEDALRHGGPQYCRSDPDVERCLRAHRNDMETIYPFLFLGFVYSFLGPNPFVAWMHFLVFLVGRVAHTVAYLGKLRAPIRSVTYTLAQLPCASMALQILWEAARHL

[4] = target: Voltage-gated inwardly rectifying potassium channel KCNH2 (Homo sapiens, UniProt Q12809); experiment: Inhibition of human ERG
CYP3A4 [5] = target: T1, CYP3A4; experiment: Time-dependent inhibition of microsomal CYP3A4 (unknown origin) using midazolam as substrate assessed as alpha-hydroxymidazolam-d4 at 10 uM pre-incubated for 12 mins before NADPH addition formation after 30 mins by LC-MS/MS analysis; type: ADME; settings: microsomes, probe midazolam
[6] = Oral bioavailability in beagle dog at 2 mg/kg after 0.25 to 24 hrs by LC-MS/MS analysis; type: ADME, organism-based, Canis lupus familiaris; settings: in vivo
[7] = Solubility of compound in FasSIF at 2 mg at room temperature after 24 hrs by HPLC analysis; type: physicochemical
Prostaglandin E synthase [8] = target: T3, Prostaglandin E synthase (Canis lupus familiaris, UniProt A0SYQ0); experiment: (§1) Inhibition of mPGES1 in LPS-induced dog whole blood assessed as suppression of PGE2 response pre-incubated for 30 mins followed by LPS addition and measured after 5 hrs by LC-MS/MS analysis; type: tissue-based
T3 sequence (A0SYQ0 whole entry): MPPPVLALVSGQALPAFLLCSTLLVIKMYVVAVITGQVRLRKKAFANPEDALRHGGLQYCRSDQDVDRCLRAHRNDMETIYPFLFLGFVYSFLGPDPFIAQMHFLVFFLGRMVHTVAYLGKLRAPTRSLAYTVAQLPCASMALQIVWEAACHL

[9] = Inhibition of rat microsomal PGES1 expressed in 293E cells by LC/MS/MS analysis; type: cell-based
Prostaglandin E synthase [10] = target: T2, Prostaglandin E synthase; experiment: Inhibition of mPGES1 in rhIL-1beta-stimulated human A549 cells assessed as PGE2 level treated for 18 hrs after 30 mins pre-incubation with rhIL-1beta by EIA method; type: cell-based
[11] = target: T4, Cyclooxygenase (Homo sapiens) (UniProt P35354+P23219); experiment: Inhibition of COX in human A549 cells assessed as reduction in PGE2 production at 10 uM; type: cell-based
Prostaglandin E synthase [12] = target: T2, Prostaglandin E synthase; experiment: (§2) Inhibition of mPGES1 in LPS-induced human whole blood assessed as suppression of PGE2 response after 20 to 24 hrs by LC-MS/MS analysis; type: tissue-based
[13] = target: T5, Prostaglandin E synthase (Homo sapiens) (UniProt O14684); experiment: as §2; type: tissue-based
T5 sequence (whole entry): T2 sequence (O14684 whole entry)

[14] = target: T4, Cyclooxygenase (Homo sapiens); experiment: Inhibition of COX in human whole blood assessed as decrease in TXB2 production up to 30 uM; type: tissue-based
[15] = target: T4, Cyclooxygenase (Homo sapiens); experiment: Inhibition of COX in human whole blood assessed as decrease in TXB2 production; type: tissue-based
[16] = target: T4, Cyclooxygenase (Homo sapiens); experiment: Inhibition of COX in human A549 cells assessed as reduction in PGE2 production; type: cell-based
[17] = target: T4, Cyclooxygenase (Homo sapiens); experiment: Inhibition of COX in human whole blood assessed as decrease in PGF2alpha production; type: tissue-based
[18] = target: Prostaglandin G/H synthase 1 (Homo sapiens) (UniProt P23219); experiment: Inhibition of COX1 (unknown origin) at 100 uM
Plasma = experiment: Plasma concentration in beagle dog at 2 mg/kg, po after; type: ADME, organism-based, Canis lupus familiaris; settings: in vivo
[19] = Oral bioavailability in beagle dog at 0.5 mg/kg after 0.25 to 24 hrs by LC-MS/MS analysis; type: ADME, organism-based, Canis lupus familiaris; settings: in vivo
hERG [20] = target: T6, hERG (Homo sapiens, UniProt Q12809); experiment: Inhibition of human ERG at 10 uM
hERG [21] = target: T6, hERG; experiment: Inhibition of human ERG at 100 uM
[22] = target: T7, Prostaglandin E synthase (Canis lupus familiaris) (UniProt A0SYQ0); experiment: as §1; type: tissue-based
T7 sequence (whole entry): T3 sequence (A0SYQ0 whole entry)

[23] = target: T8, Prostaglandin G/H synthase 2 (Homo sapiens) (UniProt P35354); experiment: Inhibition of COX2 (unknown origin) at 30 uM
T8 sequence (whole entry): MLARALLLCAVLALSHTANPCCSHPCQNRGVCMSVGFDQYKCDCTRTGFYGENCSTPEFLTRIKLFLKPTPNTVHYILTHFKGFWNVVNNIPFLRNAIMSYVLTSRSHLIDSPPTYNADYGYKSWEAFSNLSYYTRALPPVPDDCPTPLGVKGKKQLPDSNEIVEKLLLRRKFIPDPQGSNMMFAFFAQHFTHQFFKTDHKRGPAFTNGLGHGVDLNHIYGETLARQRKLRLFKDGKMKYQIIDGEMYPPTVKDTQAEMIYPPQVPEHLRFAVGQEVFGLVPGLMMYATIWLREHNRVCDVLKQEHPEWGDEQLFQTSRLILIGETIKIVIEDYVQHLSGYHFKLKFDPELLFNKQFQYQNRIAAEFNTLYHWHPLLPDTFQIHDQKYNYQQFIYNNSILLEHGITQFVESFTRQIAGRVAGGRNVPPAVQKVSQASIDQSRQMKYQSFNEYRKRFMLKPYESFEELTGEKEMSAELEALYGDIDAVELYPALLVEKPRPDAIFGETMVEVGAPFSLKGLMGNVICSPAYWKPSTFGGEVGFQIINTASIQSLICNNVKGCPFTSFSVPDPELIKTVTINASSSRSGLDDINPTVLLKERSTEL

[24] = Stability of compound at 40 degC/75% RH; type: physicochemical
[25] = Stability of compound at 70 degC/75% RH; type: physicochemical
[26] = target: T8, Prostaglandin G/H synthase 2 (Homo sapiens); experiment: Inhibition of COX-2 (unknown origin) at 10 uM
[27] = target: Prostaglandin G/H synthase 1 (Homo sapiens) (UniProt P23219); experiment: Inhibition of COX-1 (unknown origin) at 10 uM

T4 sequence (P23219 whole entry, looked up, one chain of several): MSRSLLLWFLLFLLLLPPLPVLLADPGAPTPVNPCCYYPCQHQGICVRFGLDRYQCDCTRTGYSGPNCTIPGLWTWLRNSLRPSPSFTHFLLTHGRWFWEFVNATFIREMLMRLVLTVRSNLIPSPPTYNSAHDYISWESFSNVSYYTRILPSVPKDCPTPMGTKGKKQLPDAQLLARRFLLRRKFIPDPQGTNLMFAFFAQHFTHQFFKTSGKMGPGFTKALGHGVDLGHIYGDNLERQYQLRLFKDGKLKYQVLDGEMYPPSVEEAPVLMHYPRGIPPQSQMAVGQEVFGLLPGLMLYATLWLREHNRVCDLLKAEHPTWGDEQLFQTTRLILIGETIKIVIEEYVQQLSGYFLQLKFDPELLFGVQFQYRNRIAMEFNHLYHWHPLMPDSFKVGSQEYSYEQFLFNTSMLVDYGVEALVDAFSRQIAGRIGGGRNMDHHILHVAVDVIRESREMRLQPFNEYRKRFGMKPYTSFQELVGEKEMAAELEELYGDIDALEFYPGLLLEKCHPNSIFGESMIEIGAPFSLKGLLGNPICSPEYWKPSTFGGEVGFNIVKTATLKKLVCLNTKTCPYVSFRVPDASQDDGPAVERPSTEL
T1 sequence (P08684 whole entry): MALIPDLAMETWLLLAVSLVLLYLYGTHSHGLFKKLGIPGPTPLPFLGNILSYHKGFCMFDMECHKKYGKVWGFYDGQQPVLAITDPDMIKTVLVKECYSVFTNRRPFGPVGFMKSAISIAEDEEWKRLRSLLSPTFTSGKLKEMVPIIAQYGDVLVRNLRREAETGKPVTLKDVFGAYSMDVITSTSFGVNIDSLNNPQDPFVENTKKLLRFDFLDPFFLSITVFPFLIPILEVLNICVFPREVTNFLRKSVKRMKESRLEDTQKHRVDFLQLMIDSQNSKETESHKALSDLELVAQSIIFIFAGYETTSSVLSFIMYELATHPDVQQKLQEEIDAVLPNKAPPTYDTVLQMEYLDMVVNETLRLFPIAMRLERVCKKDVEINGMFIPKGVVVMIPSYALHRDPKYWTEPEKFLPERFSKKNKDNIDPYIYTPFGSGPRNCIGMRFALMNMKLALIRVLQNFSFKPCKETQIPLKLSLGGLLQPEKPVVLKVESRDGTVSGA
Chain of Voltage-gated inwardly rectifying potassium channel KCNH2 (Q12809 whole entry): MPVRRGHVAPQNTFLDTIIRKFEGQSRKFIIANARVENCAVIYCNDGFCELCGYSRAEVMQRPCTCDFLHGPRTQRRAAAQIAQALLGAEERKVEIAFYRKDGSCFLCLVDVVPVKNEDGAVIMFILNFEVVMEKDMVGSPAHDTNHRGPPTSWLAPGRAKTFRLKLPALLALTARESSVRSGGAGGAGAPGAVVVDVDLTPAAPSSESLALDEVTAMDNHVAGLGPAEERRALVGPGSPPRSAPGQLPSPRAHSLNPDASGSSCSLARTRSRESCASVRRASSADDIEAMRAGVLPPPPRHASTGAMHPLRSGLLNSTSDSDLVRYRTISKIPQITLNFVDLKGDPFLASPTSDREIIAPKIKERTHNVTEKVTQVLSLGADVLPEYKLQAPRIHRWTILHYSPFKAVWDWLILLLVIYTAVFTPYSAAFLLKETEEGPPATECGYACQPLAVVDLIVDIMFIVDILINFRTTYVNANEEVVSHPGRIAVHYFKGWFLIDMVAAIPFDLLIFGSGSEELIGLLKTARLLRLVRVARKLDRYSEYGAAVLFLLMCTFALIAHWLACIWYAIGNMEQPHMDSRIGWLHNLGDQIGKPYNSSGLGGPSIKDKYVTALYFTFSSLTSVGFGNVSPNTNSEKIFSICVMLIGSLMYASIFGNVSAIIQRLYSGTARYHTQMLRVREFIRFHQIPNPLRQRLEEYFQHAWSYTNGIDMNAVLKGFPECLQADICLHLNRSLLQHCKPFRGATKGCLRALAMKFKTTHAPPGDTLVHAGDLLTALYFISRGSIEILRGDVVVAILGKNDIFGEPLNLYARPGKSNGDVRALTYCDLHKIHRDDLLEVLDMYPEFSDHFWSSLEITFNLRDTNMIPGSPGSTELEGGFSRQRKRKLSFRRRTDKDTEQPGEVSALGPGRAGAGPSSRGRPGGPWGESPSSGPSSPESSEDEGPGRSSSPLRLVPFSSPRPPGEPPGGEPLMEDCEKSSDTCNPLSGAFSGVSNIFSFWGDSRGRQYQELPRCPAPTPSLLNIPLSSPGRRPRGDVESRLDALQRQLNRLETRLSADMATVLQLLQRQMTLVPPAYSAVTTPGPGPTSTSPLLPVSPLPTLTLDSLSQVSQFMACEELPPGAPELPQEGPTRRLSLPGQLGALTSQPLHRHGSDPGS
T6 sequence (Q12809 whole entry): as above
Chain of Prostaglandin G/H synthase 1 (Homo sapiens) (P23219 whole entry): as the sequence (P23219 whole entry, looked up, one chain of several) above

Structure (SMILES)	inhibition at 10 µM (CYP3A4 [1])	IC50 (Prostaglandin E synthase [3])	inhibition at 0.5 h, 10 µM (CYP3A4 [5])	IC50 (Prostaglandin E synthase [10])	inhibition [11]	IC50 (Prostaglandin E synthase [12])	IC80 [13]	inhibition [14]	further results
N#Cc1cccc(C#N)c1-c1nc2c3ccc(Cl)cc3c3ccccc3c2[nH]1	32%	–	–	–	–	–	–	–	–
Cc1nc(NC(=O)c2cc(CNC(=O)C(C)C)cnc2C(F)F)[nH]c1-c1ccc(C(F)(F)F)cc1 [listing 1 of 2 here]	0%	0.0009 µM	23%	–	–	–	–	–	concentration at 24 h [2]: > 200 nM; IC50 [4]: 82.6 µM; Ki [4]: 41.3 µM; bioavailability [6]: 37%; solubility at 24 h [7]: 7 µg/mL (≈ 14.1 µM); IC50 (Prostaglandin E synthase [8]): 0.139 µM; IC50 [9]: 33.9 µM
CC(C)C(=O)NCc1cc(C(=O)Nc2ncc[nH]2)c(Cl)cc1F	–	3.67 µM	–	> 10 µM	inactive	9.53 µM	57.4 µM	inactive	–
CC(=O)NCc1cnc(C(F)F)c(C(=O)Nc2nc(C)c(-c3ccc(C(F)(F)F)cc3)[nH]2)c1	19%	0.074 µM	8%	0.72 µM	–	–	–	–	–
Cc1nc(NC(=O)c2cc(CNC(=O)C(C)C)cnc2C(F)F)[nH]c1-c1ccc(Cl)cc1	0%	< 0.003 µM	27%	0.039 µM	–	0.091 µM	0.48 µM	–	–
CCC(C)(C)C(=O)NCc1ccc(Cl)c(C(=O)Nc2ncc[nH]2)c1	–	0.385 µM	–	1.23 µM	inactive	0.853 µM	9.37 µM	inactive	–
CC(C)C(=O)NCc1cnc(C(F)F)c(C(=O)Nc2ncc(-c3ccc(Cl)cc3)[nH]2)c1	22%	< 0.003 µM	72%	0.037 µM	–	0.029 µM	0.146 µM	–	inhibition [15]: inactive; inhibition [16]: inactive; inhibition [17]: inactive
CC(C)C(=O)NCc1ccc(Cl)c(C(=O)Nc2ncc[nH]2)c1	–	–	–	–	inactive	–	8.8 µM	inactive	–
CC(C)(C)C(=O)NCc1ccc(C(F)(F)F)c(C(=O)Nc2ncc[nH]2)c1	–	1.08 µM	–	3.23 µM	inactive	2.14 µM	10.5 µM	inactive	–
Cc1cc(Cl)c(C(=O)Nc2ncc[nH]2)cc1CNC(=O)C(C)C	–	2.32 µM	–	8.85 µM	inactive	13 µM	132 µM	inactive	–
CC(C)(C)C(=O)NCc1ccc(Cl)c(C(=O)Nc2ncc[nH]2)c1 [LY-3031207]	–	–	–	–	inactive	–	2.44 µM	inactive	inhibition [18]: 9%; concentration (Plasma): > 1000 nM; bioavailability [19]: 60%; inhibition at 10 µM (hERG [20]): -4%; inhibition at 100 µM (hERG [21]): 14%; IC80 [22]: 1.84 µM; IC50 (Prostaglandin E synthase [8]): 0.555 µM; IC50 [9]: > 1000 µM
Cc1ccc(CNC(=O)C(C)(C)C)cc1C(=O)Nc1ncc[nH]1	–	3.11 µM	–	4.62 µM	inactive	2.43 µM	9.08 µM	inactive	inhibition [23]: 16%
CC(C)(C)C(=O)NCc1ccc(C(F)F)c(C(=O)Nc2ncc[nH]2)c1	–	0.676 µM	–	3.25 µM	inactive	1.43 µM	33.7 µM	inactive	–
Cc1c(CC(C)(C)C(=O)O)n(Cc2ccc(Cl)cc2)c2ccc(-c3ccc(-c4ccccc4)c(F)c3)cc12	46%	–	–	–	–	–	–	–	–
CC[C@H](C)C(=O)NCc1ccc(C(F)F)c(C(=O)Nc2ncc[nH]2)c1	–	1.12 µM	–	8.86 µM	inactive	10.5 µM	21.1 µM	inactive	–
Cc1nc(NC(=O)c2cc(CNC(=O)C(C)C)cnc2C(F)F)[nH]c1-c1ccc(C(F)(F)F)cc1.O=P(O)(O)O	–	–	–	–	–	–	–	–	Stability [24]: 4 weeks; Stability [25]: 2 weeks
Cc1nc(NC(=O)c2cc(CNC(=O)C(C)C)cnc2C(F)F)[nH]c1-c1ccc(C(F)(F)F)cc1 [listing 2 of 2 here]	–	–	–	–	–	–	0.069 µM	–	inhibition [26]: inactive; IC80 [22]: 0.703 µM; inhibition [27]: inactive
CCC(=O)NCc1cnc(C(F)F)c(C(=O)Nc2nc(C)c(-c3ccc(C(F)(F)F)cc3)[nH]2)c1	0%	0.0103 µM	15%	0.098 µM	–	0.374 µM	0.991 µM	–	–
CC(C)(C)C(=O)NCc1ccc(Br)c(C(=O)Nc2ncc[nH]2)c1	–	–	–	–	inactive	–	–	inactive	–
CC(C)C(=O)NCc1ccc(C(F)F)c(C(=O)Nc2ncc(-c3ccc(Cl)cc3)[nH]2)c1	44%	< 0.003 µM	75%	0.019 µM	–	0.338 µM	0.994 µM	–	inhibition [15]: inactive; inhibition [16]: inactive; inhibition [17]: inactive

— ChEMBL document CHEMBL3758174, “Discovery and Characterization of 2-Acylaminoimidazole Microsomal Prostaglandin E Synthase-1 Inhibitors” (J Med Chem, 2016)
